Source: patent publication US20120252773A1, “Method and composition for inhibiting cell proliferation and angiogenesis” (priority 2005, published 2012)

How the values were obtained:
[1] = system: A549 human non-small cell lung cancer cells; experiment: Cell growth inhibition, MTT, 7 days, A549; assay type: cell-based; conditions: A549, 7 days, Example 15
Procedure: To measure the inhibitory activity of (2) on growth of HDMVEC cells (Clonetics, San Diego, Calif.), 2,000 cells were seeded in each well of a 96-well plate in […] of EGM medium (Clonetics) supplemented with 5% fetal bovine serum (Sigma). The plate was incubated at 37° C. in a tissue culture incubator for 24 h, and then various concentrations of (2) dissolved in EGM were added to each well in 5-10 μl aliquots. Four wells were used for each concentration. Medium in each well was renewed with fresh test solution added every other day. After 7 days of culture, the viable cells were measured using reagents from an MTT kit (Promega Corporation, Madison, Wis.), using instructions provided by the supplier. The number of viable cells in treated wells relative to those in control wells gave the percentage of inhibition.
Compound (2) was evaluated in several different human cancer cell lines for its effects on cell growth. […]
To measure the inhibitory activity of test articles on growth of NSCLC cells, 2,000 cells were seeded in each well of a 96-well plate in […] of RPMI-1640 medium supplemented with 2 mM glutamine and 10% fetal bovine serum (growth medium). […] After 7 days of culture, the viable cells were measured using reagents from MTT kit (Promega Corporation, Madison, Wis.), using instructions provided by the supplier. […]

[2] = molecular target: T1, Human recombinant estrogen receptor-α (ER-α) (Homo sapiens, UniProt P03372); experiment: Estrogen receptor binding assay, 3H-17β-estradiol displacement, ER-α; conditions: 4° C. overnight
T1 construct: purchased PanVera Corporation (Madison, Wis.)
T1 sequence (P03372 1-595): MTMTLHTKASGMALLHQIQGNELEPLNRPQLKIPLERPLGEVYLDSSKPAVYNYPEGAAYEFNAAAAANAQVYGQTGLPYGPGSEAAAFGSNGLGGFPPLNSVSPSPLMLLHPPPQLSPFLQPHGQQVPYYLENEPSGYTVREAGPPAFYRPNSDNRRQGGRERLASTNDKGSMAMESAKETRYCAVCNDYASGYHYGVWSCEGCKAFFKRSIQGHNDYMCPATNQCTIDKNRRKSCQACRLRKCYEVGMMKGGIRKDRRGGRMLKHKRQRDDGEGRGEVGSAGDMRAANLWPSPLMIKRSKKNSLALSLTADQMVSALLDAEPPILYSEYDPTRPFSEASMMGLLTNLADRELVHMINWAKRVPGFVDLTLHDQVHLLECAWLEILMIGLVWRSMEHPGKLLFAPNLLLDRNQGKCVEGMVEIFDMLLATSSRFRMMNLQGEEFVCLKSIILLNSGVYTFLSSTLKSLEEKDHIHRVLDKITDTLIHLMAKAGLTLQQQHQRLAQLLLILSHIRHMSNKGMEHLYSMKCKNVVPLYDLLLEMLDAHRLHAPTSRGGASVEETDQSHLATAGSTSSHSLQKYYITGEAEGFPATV
Procedure: Human recombinant estrogen receptor-α (ER-α) and estrogen receptor-β (ER-β) were obtained from PanVera Corporation (Madison, Wis.) to conduct the binding assay. To measure the binding affinity of (2), various concentrations of (2) or 17β-estradiol were incubated with either ER-α or ER-β receptor in the presence of a fixed amount of ^3H-17β-estradiol at 4° C. overnight. At the end of the incubation, the free- and bound-3H-estradiol were separated following the instructions provided by the manufacturer using hydroxylapatite.

[3] = system: A549 human non small cell lung cancer tumors; experiment: A549 NSCLC nude mouse xenograft model, tumor growth; assay type: in vivo; conditions: 30 days
Procedure: The xenograft model was conducted using 8 weeks old female athymic nude mice supplied by Charles River Laboratories. After 4 days of quarantine, A549 human non small cell lung cancer cells (3×10^6 cells/mouse) were subcutaneously implanted in the right flanks of mice in a 100 μl of Matrigel/phosphate buffered saline mixture (1:1). Animals were observed daily for tumor growth. When tumors became palpable, we began to measure the tumors using the formula V=W×L×H×π/6, where W and L represent the shorter and longer diameters of the tumor, H the height of the tumor. When tumor volumes reached approximately 50 mm^3, animals were randomized into control and treatment groups of 10 mice each based on tumor volumes. Only the mice with tumor volumes closest to the mean value were used. On the day of randomization, animals began to receive drug treatment. Compound (2) and Tarceva (Erlotinib) were orally dosed via gavage once daily. Cisplatin and Paclitaxel were dosed via intraperitoneal injection once weekly.
After initiation of drug treatment, tumor volumes were measured twice weekly and body weights once weekly. The study was carried out for 30 days and unscheduled sacrifices were performed on animals with tumor volumes greater than 1500 mm^3 or tumors developing ulceration or loss of 20% of their original body weights. […]

SMILES: C[C@@H]1Cc2cc(O)ccc2C2CCC3(C)/C(=C/COCCN(C)C)CCC3C21 (stereo partly drawn) [Compound (2), (E)-3-Hydroxy-7α-methyl-21-[(2-dimethylamino)ethoxy]-19-norpregna-1,3,5(10),17(20)-tetraene]
- growth of NSCLC cells [1]: inhibited the growth of NSCLC cells in a dose-response manner
- inhibitory activity compared with Cisplatin tested in parallel [1]: much more potent than that of Cisplatin
- binding affinity (relative to non-radiolabeled estradiol, 50% displacement of 3H-estradiol) [2]: 3
- growth rate of A549 tumors ([3]; 10 mg/kg oral once daily): drastically reduced the growth rate
- growth rate of A549 tumors ([3]; 20 mg/kg oral once daily): drastically reduced the growth rate
